This passage reports IC50 results from patent publication US9725449B2, “Tricyclic compounds as anticancer agents” (BRISTOL-MYERS SQUIBB COMPANY, priority 2015, dated 2017).

Bounds are passed on as bounds.

For the assay, the target named is BRD4 (Homo sapiens, UniProt O60885). The experiment in a line: Time resolved fluorescence resonance energy transfer (TR-FRET) binding assay, bromodomain BRD4. The conditions noted are these: one of the FRET assays described; read-out: FRET BRD4 IC50. In general terms: In TR-FRET formats the signal depends on donor and acceptor labels being close together.
The term IC50 denotes the concentration at which inhibition is half-maximal. As to `Cc1nnn(C)c1-c1cnc2c3ccc(-c4ccnn4C)nc3n([C@H](c3ccccc3F)C3CCOCC3)c2c1` [Example 229, 5-(Dimethyl-1H-1,2,3-triazol-5-yl)-8-[(S)-(2-fluorophenyl)(oxan-4-yl)methyl]-11-(1-methyl-1H-pyrazol-5-yl)-3,8,10-triazatricyclo[7.4.0.0^2,^7]trideca-1(13),2(7),3,5,9,11-hexaene], the IC50 was under 10 nM.

On to `Cc1noc(C)c1-c1cc2c(cn1)c1ncc(C(C)(C)O)cc1n2[C@H](c1ccccc1)C1CCOCC1` [Example 369], for which the IC50 was under 10 nM.

As for `[2H]C([2H])([2H])c1nnn(C)c1-c1cnc2c3c(OC)ncc(C(C)(C)O)c3n([C@H](c3ccccc3)C3CCOCC3)c2c1` [Example 138, 2-{13-Methoxy-5-[4-(^2H3)methyl-1-methyl-1H-1,2,3-triazol-5-yl]-8-[(S)-oxan-4-yl(phenyl)methyl]-3,8,12-triazatricyclo[7.4.0.0^2,^7]trideca-1(13),2(7),3,5,9,11-hexaen-10-yl}propan-2-ol], the IC50 is under 10 nM.

As for `[2H]C([2H])([2H])c1nnn(C)c1-c1cnc2c3ccc(NCCS(C)(=O)=O)nc3n([C@H](c3ccccc3)C3CCOCC3)c2c1` [Example 189, N-(2-Methanesulfonylethyl)-5-[4-(^2H3)methyl-1-methyl-1H-1,2,3-triazol-5-yl]-8-[(S)-oxan-4-yl(phenyl)methyl]-3,8,10-triazatricyclo[7.4.0.0^2,^7]trideca-1(9),2(7),3,5,10,12-hexaen-11-amine], the half-inhibitory concentration (IC50) was under 1 nM.

With `[2H]C([2H])([2H])c1nnn(C)c1-c1cnc2c3c(OC(C)C)ncc(S(C)(=O)=O)c3n([C@H](c3ccccc3F)C3CCOCC3)c2c1` [Example 80, 8-[(S)-(2-Fluorophenyl)(oxan-4-yl)methyl]-10-methanesulfonyl-5-[4-(^2H3)methyl-1-methyl-1H-1,2,3-triazol-5-yl]-13-(propan-2-yloxy)-3,8,12-triazatricyclo[7.4.0.0^2,^7]trideca-1(13),2(7),3,5,9,11-hexaene], the concentration for half-maximal inhibition (IC50) is under 1 nM.

`CCCC(c1ccccc1)n1c2cc(-c3c(C)nnn3C)ncc2c2ncc(C(C)(C)O)cc21` (stereo not drawn) [Example 372]: the IC50 is under 1500 nM.

As for “2-{8-[(3-Fluoropyridin-2-yl)(oxan-4-yl)methyl]-11-[4-(^2H3)methyl-1-methyl-1H-1,2,3-triazol-5-yl]-3,8,10-triazatricyclo[7.4.0.0^2,^7]trideca-1(9),2,4,6,10,12-hexaen-5-yl}propan-2-ol [Example 363]”, the concentration for half-maximal inhibition (IC50) was under 1 nM.

As for `CCOc1ncc(S(C)(=O)=O)c2c1c1ncc(-c3c(C)nnn3C)cc1n2[C@H](c1ccccc1)C1CCOCC1` [Example 53, 5-(Dimethyl-1H-1,2,3-triazol-5-yl)-13-ethoxy-10-methanesulfonyl-8-[(S)-oxan-4-yl(phenyl)methyl]-3,8,12-triazatricyclo[7.4.0.0^2,^7]trideca-1(13),2(7),3,5,9,11-hexaene], the half-inhibitory concentration (IC50) was under 1 nM.

Take `[2H]C([2H])([2H])c1nnn(C)c1-c1cnc2c3c(NCC(F)F)ncc(S(C)(=O)=O)c3n([C@H](c3ccccc3)C3CCOCC3)c2c1` [Example 117, N-(2,2-Difluoroethyl)-10-methanesulfonyl-5-[4-(^2H3)methyl-1-methyl-1H-1,2,3-triazol-5-yl]-8-[(S)-oxan-4-yl(phenyl)methyl]-3,8,12-triazatricyclo[7.4.0.0^2,^7]trideca-1(13),2(7),3,5,9,11-hexaen-13-amine]: the IC50 was under 10 nM.

Take `[2H]C([2H])([2H])c1nnn(C)c1-c1cnc2c3cnc(C(C)(C)O)c(F)c3n([C@H](c3ccccc3)C3CCOCC3)c2c1` [Example 278, 2-{10-Fluoro-5-[4-(^2H3)methyl-1-methyl-1H-1,2,3-triazol-5-yl]-8-[(S)-oxan-4-yl(phenyl)methyl]-3,8,12-triazatricyclo[7.4.0.0^2,^7]trideca-1(13),2(7),3,5,9,11-hexaen-11-yl}propan-2-ol]: the 50% inhibitory concentration (IC50) was under 1 nM.

On to `[2H]C([2H])([2H])c1nnn(C)c1-c1cnc2c3c(OC)nc(C(C)=O)cc3n([C@@H](c3ncccc3F)C3CCOCC3)c2c1` [Example 310, 1-{8-[(R)-(3-Fluoropyridin-2-yl)(oxan-4-yl)methyl]-13-methoxy-5-[4-(^2H3)methyl-1-methyl-1H-1,2,3-triazol-5-yl]-3,8,12-triazatricyclo[7.4.0.0^2,^7]trideca-1(9),2(7),3,5,10,12-hexaen-11-yl}ethan-1-one], for which the IC50 is under 10 nM.

With `CSc1ccc2c3ncc(-c4c(C)nnn4C)cc3n([C@H](c3ccccc3)C3CCOCC3)c2n1` [Example 194, 5-(Dimethyl-1H-1,2,3-triazol-5-yl)-11-(methylsulfanyl)-8-[(S)-oxan-4-yl(phenyl)methyl]-3,8,10-triazatricyclo[7.4.0.0^2,^7]trideca-1(9),2(7),3,5,10,12-hexaene], the IC50 was under 10 nM.

For the compound `[2H]C([2H])([2H])c1nnn(C)c1-c1cnc2c3ccncc3n([C@H](c3ccccc3)C3CCOCC3)c2c1` [Example 299, 5-[4-(^2H3)Methyl-1-methyl-1H-1,2,3-triazol-5-yl]-8-[(S)-oxan-4-yl(phenyl)methyl]-3,8,11-triazatricyclo[7.4.0.0^2,^7]trideca-1(9),2(7),3,5,10,12-hexaene], the IC50 was under 1 nM.

For the compound `[2H]C([2H])([2H])c1nnn(C)c1-c1cnc2c3c(OC)nccc3n([C@H](c3ccccc3)C3CCOCC3)c2c1` [Example 128, 13-Methoxy-5-[4-(^2H3)methyl-1-methyl-1H-1,2,3-triazol-5-yl]-8-[(S)-oxan-4-yl(phenyl)methyl]-3,8,12-triazatricyclo[7.4.0.0^2,^7]trideca-1(13),2(7),3,5,9,11-hexaene], the half-maximal inhibitory concentration (IC50) was under 10 nM.

As for `[2H]C([2H])([2H])c1nnn(C)c1-c1cnc2c3cnc(-c4c(C([2H])([2H])[2H])nnn4C)cc3n([C@H](c3ccccc3)C3CCOCC3)c2c1` [Example 168, 5,11-Bis[4-(^2H3)methyl-1-methyl-1H-1,2,3-triazol-5-yl]-8-[(S)-oxan-4-yl(phenyl)methyl]-3,8,12-triazatricyclo[7.4.0.0^2,^7]trideca-1(9),2(7),3,5,10,12-hexaene], the half-inhibitory concentration (IC50) was under 1 nM.

`[2H]C([2H])([2H])c1nnn(C)c1-c1cnc2c3ccc(C(C)(C)O)nc3n([C@H](c3ccccc3F)C3CCOCC3)c2c1` [Example 241, 2-{8-[(S)-(2-Fluorophenyl)(oxan-4-yl)methyl]-5-[4-(^2H3)methyl-1-methyl-1H-1,2,3-triazol-5-yl]-3,8,10-triazatricyclo[7.4.0.0^2,^7]trideca-1(13),2(7),3,5,9,11-hexaen-11-yl}propan-2-ol]: the 50% inhibitory concentration (IC50) is under 10 nM.

Take `[2H]C([2H])([2H])c1nnn(C)c1-c1cnc2c3ccc(-c4c(C([2H])([2H])[2H])nnn4C)nc3n([C@@H](c3ccccc3)C3CCOCC3)c2c1` [Example 165, 5,11-Bis[4-(^2H3)methyl-1-methyl-1H-1,2,3-triazol-5-yl]-8-[(R)-oxan-4-yl(phenyl)methyl]-3,8,10-triazatricyclo[7.4.0.0^2,^7]trideca-1(9),2(7),3,5,10,12-hexaene]: the IC50 is under 10 nM.

On to `Cc1nnn(C)c1-c1cnc2c3c(NS(C)(=O)=O)ncc(S(C)(=O)=O)c3n([C@H](c3ccccc3)C3CCOCC3)c2c1` [Example 105, N-[5-(Dimethyl-1H-1,2,3-triazol-5-yl)-10-methanesulfonyl-8-[(S)-oxan-4-yl(phenyl)methyl]-3,8,12-triazatricyclo[7.4.0.0^2,^7]trideca-1(13),2(7),3,5,9,11-hexaen-13-yl]methanesulfonamide], for which the IC50 was under 10 nM.
